Experimental findings from patent publication US10793564B2, “Amino acid compounds and methods of use” (Pliant Therapeutics, Inc., priority 2018, dated 2020) are described below.

One may read the IC50 as the concentration at which inhibition is half-maximal.

In the experiment the target is recombinant human integrin αVβ6 (Homo sapiens (Human), UniProt P06756+P18564). The experiment is described as follows: Solid phase integrin αVβ6 binding assay. The note with it: inhibition of recombinant TGFβ1 LAP binding to coated integrin, IC50 presented in four ranges, read-out: αvβ6 Inhibition IC50 (nM) - range. In a few lines: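 Plates coated with recombinant human αVβ6 (2 μg/mL) and blocked; compounds competed with TGFβ1 LAP (0.67 μg/mL) in Mn2+ (0.5 mM)/BSA/sucrose TBS for 2 h at 25° C. Bound LAP detected by biotin anti-LAP and peroxidase-streptavidin; IC50 by four-parameter logistic fit.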
Sequence of recombinant human integrin αVβ6 (P06756 31-992): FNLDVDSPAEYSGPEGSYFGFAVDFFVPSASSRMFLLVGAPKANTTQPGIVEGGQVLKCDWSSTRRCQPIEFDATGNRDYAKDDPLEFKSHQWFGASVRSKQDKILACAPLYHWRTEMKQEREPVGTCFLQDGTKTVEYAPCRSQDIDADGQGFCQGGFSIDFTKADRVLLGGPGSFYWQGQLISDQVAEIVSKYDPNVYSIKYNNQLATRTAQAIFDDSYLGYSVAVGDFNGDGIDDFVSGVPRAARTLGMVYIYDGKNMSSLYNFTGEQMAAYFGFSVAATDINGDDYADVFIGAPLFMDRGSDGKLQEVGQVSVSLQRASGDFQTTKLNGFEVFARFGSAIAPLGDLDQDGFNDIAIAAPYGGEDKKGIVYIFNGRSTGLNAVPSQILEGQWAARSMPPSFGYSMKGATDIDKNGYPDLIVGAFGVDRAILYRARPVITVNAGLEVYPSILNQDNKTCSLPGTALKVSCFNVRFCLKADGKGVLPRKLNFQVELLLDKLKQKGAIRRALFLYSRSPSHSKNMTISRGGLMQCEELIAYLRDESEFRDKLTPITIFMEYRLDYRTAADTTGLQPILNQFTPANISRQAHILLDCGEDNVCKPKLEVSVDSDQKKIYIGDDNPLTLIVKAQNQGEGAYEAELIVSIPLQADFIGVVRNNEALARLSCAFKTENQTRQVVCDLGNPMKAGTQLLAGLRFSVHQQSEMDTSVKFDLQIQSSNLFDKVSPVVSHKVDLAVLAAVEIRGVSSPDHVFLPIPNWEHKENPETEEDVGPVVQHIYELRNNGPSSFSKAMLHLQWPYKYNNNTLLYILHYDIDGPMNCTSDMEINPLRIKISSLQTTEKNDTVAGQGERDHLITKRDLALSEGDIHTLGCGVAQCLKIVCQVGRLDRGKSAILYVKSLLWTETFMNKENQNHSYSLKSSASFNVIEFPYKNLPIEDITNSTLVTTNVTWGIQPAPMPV
Sequence of recombinant human integrin αVβ6 (P18564 22-707): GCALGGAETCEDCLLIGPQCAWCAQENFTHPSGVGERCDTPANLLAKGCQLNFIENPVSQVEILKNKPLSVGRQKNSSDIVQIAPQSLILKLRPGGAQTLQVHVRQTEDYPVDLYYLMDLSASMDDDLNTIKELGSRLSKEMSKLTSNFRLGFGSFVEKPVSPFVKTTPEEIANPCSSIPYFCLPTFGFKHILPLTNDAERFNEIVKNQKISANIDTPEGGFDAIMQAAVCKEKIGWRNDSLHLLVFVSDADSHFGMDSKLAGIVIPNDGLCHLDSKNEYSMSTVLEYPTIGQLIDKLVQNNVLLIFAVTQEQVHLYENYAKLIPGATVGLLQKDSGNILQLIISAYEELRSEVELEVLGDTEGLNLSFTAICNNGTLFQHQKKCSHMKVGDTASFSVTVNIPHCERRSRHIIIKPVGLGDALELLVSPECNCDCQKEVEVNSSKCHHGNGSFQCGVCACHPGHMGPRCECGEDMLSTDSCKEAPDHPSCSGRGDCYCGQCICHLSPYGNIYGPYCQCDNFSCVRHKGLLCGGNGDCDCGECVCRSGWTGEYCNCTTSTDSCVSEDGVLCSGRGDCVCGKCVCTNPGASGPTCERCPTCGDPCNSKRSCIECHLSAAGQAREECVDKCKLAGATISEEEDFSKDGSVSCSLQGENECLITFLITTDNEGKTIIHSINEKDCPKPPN
For `O=C(O)[C@H](CCN(CCCCc1ccc2c(n1)NCCC2)CCOc1ccc(F)cc1)Nc1ncc(C(F)(F)F)cn1` [Compound 139, (S)-4-((2-(4-fluorophenoxy)ethyl) (4-(5,6,7,8-tetrahydro-1,8-naphthyridin-2-yl)butyl)amino)-2-((5-(trifluoromethyl)pyrimidin-2-yl)amino) butanoic Acid], the concentration for half-maximal inhibition (IC50) is below 50 nM.
For `CN(C)C(=O)CN(CCCCc1ccc2c(n1)NCCC2)CC[C@H](Nc1ncnc2c1cnn2C)C(=O)O` [Compound 140, (S)-4-((2-(dimethylamino)-2-oxoethyl) (4-(5,6,7,8-tetrahydro-1,8-naphthyridin-2-yl)butyl)amino)-2-((1-methyl-1H-pyrazolo[3,4-d]pyrimidin-4-yl)amino) butanoic Acid] the value was below 50 nM.
The figure for `CN(C)C(=O)CN(CCCCc1ccc2c(n1)NCCC2)CC[C@H](Nc1ncc(C(F)(F)F)cn1)C(=O)O` [Compound 141, (S)-4-((2-(dimethylamino)-2-oxoethyl) (4-(5,6,7,8-tetrahydro-1,8-naphthyridin-2-yl)butyl)amino)-2-((5-(trifluoromethyl)pyrimidin-2-yl)amino) butanoic Acid] is 50 to 250 nM; for `O=C(O)[C@H](CCN(CCCCc1ccc2c(n1)NCCC2)CC(F)F)Nc1cc(-c2ccccc2)ncn1` [Compound 142, (S)-4-((2,2-difluoroethyl) (4-(5,6,7,8-tetrahydro-1,8-naphthyridin-2-yl)butyl)amino)-2-((6-phenylpyrimidin-4-yl)amino) butanoic Acid] it is above 1000 nM.
As to `O=C(O)[C@H](CCN(CCCCc1ccc2c(n1)NCCC2)CCOc1ccc(F)cc1)Nc1ncnc2[nH]ncc12` [Compound 143, (S)-2-((1H-pyrazolo[3,4-d]pyrimidin-4-yl)amino)-4-((2-(4-fluorophenoxy)ethyl) (4-(5,6,7,8-tetrahydro-1,8-naphthyridin-2-yl)butyl)amino) butanoic Acid], the 50% inhibitory concentration (IC50) lay within 50 to 250 nM.
For `O=C(O)[C@H](CCN(CCCCc1ccc2c(n1)NCCC2)CCOc1ccc(F)cc1)Nc1ncc(Br)cn1` [Compound 144, (S)-2-((5-bromopyrimidin-2-yl)amino)-4-((2-(4-fluorophenoxy)ethyl) (4-(5,6,7,8-tetrahydro-1,8-naphthyridin-2-yl)butyl)amino) butanoic Acid] the value was 50 to 250 nM; for `CN(C)C(=O)CN(CCCCc1ccc2c(n1)NCCC2)CC[C@H](Nc1ccnc(C(F)(F)F)n1)C(=O)O` [Compound 145, (S)-4-((2-(dimethylamino)-2-oxoethyl) (4-(5,6,7,8-tetrahydro-1,8-naphthyridin-2-yl)butyl)amino)-2-((2-(trifluoromethyl)pyrimidin-4-yl)amino) butanoic Acid], below 50 nM.
With `O=C(O)[C@H](CCN(CCCCc1ccc2c(n1)NCCC2)CC(F)F)Nc1ncc(C2CC2)cn1` [Compound 146, (S)-2-((5-cyclopropylpyrimidin-2-yl)amino)-4-((2,2-difluoroethyl) (4-(5,6,7,8-tetrahydro-1,8-naphthyridin-2-yl)butyl)amino) butanoic Acid], the IC50 was above 1000 nM.
For `O=C(O)[C@H](CCN(CCCCc1ccc2c(n1)NCCC2)CC1(F)COC1)Nc1ncnc2ccccc12` [Compound 147, (S)-4-(((3-fluorooxetan-3-yl)methyl) (4-(5,6,7,8-tetrahydro-1,8-naphthyridin-2-yl)butyl)amino)-2-(quinazolin-4-ylamino) butanoic Acid] the value was 50 to 250 nM.
